Source: ChEMBL document CHEMBL1201862, “PubChem BioAssay data set” (2004)
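Growth conditions: 96-well plates. Treatment: test compound, 48 hours, 5 concentrations. Analysis: linear interpolation between bracketing concentrations; unreached endpoints set to highest concentration. GI50 = concentration required for 50% inhibition of growth.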 Calls of active or inactive are those of the source. No stated cut-off is given here; in the data, active = GI50 up to about 1.1 µM and inactive = higher. Residues, ends and D or L forms follow the SMILES beside them. *: point of attachment. Boc = CC(C)(C)OC(=O)*; OBn = c1ccc(CO*)cc1

Legend:
Assay in all cases: NCI-60 cell line screen, 48 h
MDA-MB-435 = tested on: MDA-MB-435
KM12 = tested on: KM12
HCT-116 = tested on: HCT-116
COLO 205 = tested on: COLO 205
HL-60 = tested on: HL-60
K562 = tested on: K562
OVCAR-5 = tested on: OVCAR-5
SK-MEL-5 = tested on: SK-MEL-5
HOP-92 = tested on: HOP-92
HCC 2998 = tested on: HCC 2998
A498 = tested on: A498
SK-MEL-28 = tested on: SK-MEL-28
OVCAR-4 = tested on: OVCAR-4
RPMI-8226 = tested on: RPMI-8226
SF-539 = tested on: SF-539
NCI-H23 = tested on: NCI-H23
SW-620 = tested on: SW-620
NCI-H522 = tested on: NCI-H522
HT-29 = tested on: HT-29
NCI-H460 = tested on: NCI-H460
CAKI-1 = tested on: CAKI-1
Hs-578T = tested on: Hs-578T
HCT-15 = tested on: HCT-15
DU-145 = tested on: DU-145
SF-268 = tested on: SF-268
SK-OV-3 = tested on: SK-OV-3
786-0 = tested on: 786-0
ACHN = tested on: ACHN
UACC-62 = tested on: UACC-62
UACC-257 = tested on: UACC-257
OVCAR-8 = tested on: OVCAR-8
EKVX = tested on: EKVX
MOLT-4 = tested on: MOLT-4
SNB-75 = tested on: SNB-75
SR = tested on: SR
MDA-N = tested on: MDA-N
OVCAR-3 = tested on: OVCAR-3
UO-31 = tested on: UO-31
RXF 393 = tested on: RXF 393
TK-10 = tested on: TK-10
SN12C = tested on: SN12C
HOP-62 = tested on: HOP-62
CCRF-CEM = tested on: CCRF-CEM
T47D = tested on: T47D
MDA-MB-231 = tested on: MDA-MB-231
U-251 = tested on: U-251
M14 = tested on: M14
MCF7 = tested on: MCF7
LOX IMVI = tested on: LOX IMVI
A549 = tested on: A549
NCI-H226 = tested on: NCI-H226
IGROV-1 = tested on: IGROV-1
SF-295 = tested on: SF-295
NCI/ADR-RES = tested on: NCI/ADR-RES
Malme-3M = tested on: Malme-3M
SNB-19 = tested on: SNB-19
PC-3 = tested on: PC-3
SK-MEL-2 = tested on: SK-MEL-2

Measured: GI50

O=C(CC(C(=O)c1ccsc1)c1cccs1)c1ccccc1 (centres undefined)
56.4 µM: HCT-15
inactive: MDA-MB-435 57.3 µM | KM12 59 µM | HCT-116 71.4 µM | COLO 205 > 100 µM | HL-60 71.4 µM | K562 > 100 µM | OVCAR-5 > 100 µM | SK-MEL-5 70.5 µM | HOP-92 > 100 µM | HCC 2998 > 100 µM | A498 29.9 µM | SK-MEL-28 > 100 µM | OVCAR-4 18.3 µM | RPMI-8226 > 100 µM | SF-539 > 100 µM | NCI-H23 29.7 µM | SW-620 > 100 µM | NCI-H522 70.1 µM | HT-29 82.8 µM | NCI-H460 36.6 µM | CAKI-1 > 100 µM | Hs-578T > 100 µM | DU-145 54.6 µM | SF-268 > 100 µM | SK-OV-3 > 100 µM | 786-0 > 100 µM | ACHN > 100 µM | UACC-62 49.2 µM | UACC-257 > 100 µM | OVCAR-8 89.1 µM | EKVX > 100 µM | MOLT-4 36.2 µM | SNB-75 23.7 µM | SR 76.9 µM | MDA-N > 100 µM | OVCAR-3 > 100 µM | UO-31 19.2 µM | RXF 393 14 µM | TK-10 > 100 µM | SN12C > 100 µM | HOP-62 > 100 µM | CCRF-CEM 80.4 µM | T47D 9.57 µM | MDA-MB-231 56.8 µM | U-251 98.9 µM | M14 69.2 µM | MCF7 45.1 µM | LOX IMVI 78 µM | A549 15.6 µM | NCI-H226 > 100 µM | IGROV-1 > 100 µM | SF-295 98.9 µM

COc1ccc(/C=C\c2cc(OC)c(OC)c(OC)c2)cc1OP(=O)(O)O
active: NCI/ADR-RES 0.000137 µM

CC(C)C(NC(=O)C(Cc1ccccc1)NC(=O)OC(C)(C)C)C(=O)NCC(=O)OCc1ccccc1 (stereo not drawn) (Boc-Phe-Val-Gly-OBn; configuration not given here)
inactive: MDA-MB-435 6.92 µM | HCT-116 23.7 µM | COLO 205 20.6 µM | HL-60 13.4 µM | K562 7.76 µM | Malme-3M 18.5 µM | NCI/ADR-RES > 100 µM | OVCAR-5 15.1 µM | SNB-19 25.6 µM | HCC 2998 17.8 µM | A498 44.6 µM | PC-3 15.7 µM | SK-MEL-2 17.8 µM | SK-MEL-28 16.3 µM | OVCAR-4 3.87 µM | RPMI-8226 16.5 µM | SF-539 25.3 µM | NCI-H23 16.8 µM | SW-620 14.3 µM | NCI-H522 6.55 µM | HT-29 17.5 µM | NCI-H460 18.8 µM | CAKI-1 18.8 µM | DU-145 14.3 µM | SF-268 14.7 µM | SK-OV-3 13.4 µM | 786-0 17.9 µM | ACHN 17.5 µM | UACC-62 16.9 µM | UACC-257 20.4 µM | OVCAR-8 19.5 µM | EKVX 20.4 µM | MOLT-4 18.5 µM | SNB-75 20.5 µM | MDA-N 19.4 µM | OVCAR-3 14.4 µM | UO-31 21.7 µM | TK-10 13 µM | SN12C 18 µM | HOP-62 19.2 µM | CCRF-CEM 20 µM | T47D 18.7 µM | MDA-MB-231 16.6 µM | U-251 17.6 µM | M14 20.9 µM | MCF7 > 10 µM | LOX IMVI 14.9 µM | IGROV-1 14.7 µM | SF-295 18.6 µM
12.9 µM: HCT-15
